Data as given in patent US11833125B2, “Pharmaceutical composition for controlled release of treprostinil” (Pharmosa Biopharm Inc., priority 2018, dated 2023).

What was measured:
Sprague Dawley rats = assay: Safety evaluation of inhaled composition: cage-side observation of upper airway irritation; type: in vivo; conditions: nebulized, nose-only inhalation, 6 μg/kg/day for 10 days; frequency of clinical signs in 10 inhalations; n = 3
Experimental: In this study, 8 male Sprague Dawley rats (purchased from BioLASCO Taiwan Co., Ltd.) were divided into 3 groups: control group (n=2), comparative group (n=3) and experimental group (n=3). The experimental group rats and the comparative group rats were placed in restraining tubes and given nebulized treprostinil liposomal composition LB11500 from Example 2 and free treprostinil solution, respectively, at a dosage of 6 μg/kg/day for 10 days, via a 20-port nose-only Buxco inhalation exposure system (DSI, USA). An air flow carried aerosol generated by mesh vibrating nebulizer was provided to the system tower where the rats are encased in, at a rate of 10 L/min. The control group rats received no exposure to the drug.
During the study, cage-side clinical observation was performed on each rat by a single observer to record incidences of upper airway irritation due to the inhaled nebulized treprostinil liposomal composition or free treprostinil solution. Manifestations of upper airway irritation include tension, sneezing, erythematous pinnae, tremor, hunched posture, piloerection, tachypnea and labored breathing, hyperpnea and epistaxis.

[1] = In vivo pharmacokinetics study, intra-tracheal administration, plasma treprostinil by LC-MS/MS; parameters: species or system Sprague-Dawley rats; conditions: rat, FIGS. 1A and 1B
Experimental: In this in vivo PK study, Sprague-Dawley rats (purchased from BioLASCO Taiwan Co., Ltd.) were anaesthetized with isoflurane, and positioned securely on its back to an arched platform in a dorsal position at a 45° to 50° plane using a ribbon hooked around upper incisors. A microspray aerosol tip (Microsprayer, PennCentury, Philadelphia, USA) was inserted to the tracheal bifurcation of each rat, and a test sample (i.e., compositions in Table 2 or free treprostinil solution) was administered intra-tracheally to each rat at a given dose using a high-pressure syringe that is attached to the microspray aerosol device. […] The blood sample was then centrifuged at approximately 2500×g for 15 min and at 4±2° C. within 1 hour of collection, so as to separate the plasma from the blood cells. Approximately 0.1 mL of the obtained plasma sample from each rat was added into a new storage tube and stored in a freezer with a temperature maintained at −70±2° C. […] The obtained supernatant (150 μL) was mixed with an equal volume of H2O and analyzed by liquid chromatography-tandem mass spectrometry (LC-MS/MS) to determine the treprostinil concentration in the plasma sample of the rat. […]

time at which plasma treprostinil concentration peaked [1]: ≤ 5 min
SMILES: CCCCC[C@H](O)CC[C@@H]1[C@H]2Cc3cccc(OCC(=O)O)c3C[C@H]2C[C@H]1O [free treprostinil, treprostinil]
Incidences of upper airway irritation (Sprague Dawley rats): 17
